In ChEMBL document CHEMBL1150478, “Synthesis and in vitro antiandrogenic activity of 17-hydroxy-17-(-hydroxy/haloalkyn-1-yl)-4-methyl-4-aza-3-oxo-5-androstan-(1-ene)-3-ones” (Bioorg Med Chem Lett, 1995):

What was measured:
[1] = Concentration required for inhibition of 5-alpha-Dihydrotestosterone (DHT) stimulated shionogi cell proliferation was determined; format: functional; conditions: Mus musculus
[2] = Concentration required for inhibition of 5-alpha-Dihydrotestosterone (DHT) stimulated shionogi cell proliferation was determined; No activity was observed at 1 uM; format: functional; conditions: Mus musculus

| SMILES | IC50 [1] [nM] | IC50 [2] [nM] |
| --- | --- | --- |
| CN1C(=O)CC[C@]2(C)C3CC[C@@]4(C)C(CC[C@@]4(O)C#CCCI)C3CCC12 (some centres not stated) | 160 | – |
| CN1C(=O)C=C[C@]2(C)C3CC[C@@]4(C)C(CC[C@@]4(O)C#CCCCI)C3CCC12 (some centres not stated) | 179 | – |
| CN1C(=O)CC[C@]2(C)C3CC[C@@]4(C)C(CC[C@@]4(O)C#CCCCO)C3CCC12 (some centres not stated) | – | > 1000 |
| CN1C(=O)C=C[C@]2(C)C3CC[C@@]4(C)C(CC[C@@]4(O)C#CCCBr)C3CCC12 (some centres not stated) | 142 | – |
| CN1C(=O)C=C[C@]2(C)C3CC[C@@]4(C)C(CC[C@@]4(O)C#CCCI)C3CCC12 (some centres not stated) | 96.8 | – |
| CN1C(=O)CC[C@]2(C)C3CC[C@@]4(C)C(CC[C@@]4(O)C#CCCCl)C3CCC12 (some centres not stated) | 250 | – |
| CN1C(=O)C=C[C@]2(C)C3CC[C@@]4(C)C(CC[C@@]4(O)C#CCCO)C3CCC12 (some centres not stated) | – | > 1000 |
| CN1C(=O)CC[C@]2(C)C3CC[C@@]4(C)C(CC[C@@]4(O)C#CCCCI)C3CCC12 (some centres not stated) | 328 | – |
| CN1C(=O)CC[C@]2(C)C3CC[C@@]4(C)C(CC[C@@]4(O)C#CCCCBr)C3CCC12 (some centres not stated) | 325 | – |
| CN1C(=O)CC[C@]2(C)C3CC[C@@]4(C)C(CC[C@@]4(O)C#CCCBr)C3CCC12 (some centres not stated) | 279 | – |
| CN1C(=O)CC[C@]2(C)C3CC[C@@]4(C)C(CC[C@@]4(O)C#CCCO)C3CCC12 (some centres not stated) | – | > 1000 |
| CN1C(=O)C=C[C@]2(C)C3CC[C@@]4(C)C(CC[C@@]4(O)C#CCCCBr)C3CCC12 (some centres not stated) | 149 | – |
| CN1C(=O)CC[C@]2(C)C3CC[C@@]4(C)C(CC[C@@]4(O)C#CCCCCl)C3CCC12 (some centres not stated) | 129 | – |
| CN1C(=O)C=C[C@]2(C)C3CC[C@@]4(C)C(CC[C@@]4(O)C#CCCCl)C3CCC12 (some centres not stated) | 94.5 | – |
| CN1C(=O)C=C[C@]2(C)C3CC[C@@]4(C)C(CC[C@@]4(O)C#CCCCCl)C3CCC12 (some centres not stated) | 67.2 | – |
| CC(C)(O)C(=O)Nc1ccc([N+](=O)[O-])c(C(F)(F)F)c1 [HYDROXYFLUTAMIDE] | 52.5 | – |
| CN1C(=O)C=C[C@]2(C)C3CC[C@@]4(C)C(CC[C@@]4(O)C#CCCCO)C3CCC12 (some centres not stated) | – | > 1000 |
